The record followed here is publication PMC9851200, “Multiparameter phenotypic screening for endogenous TFEB and TFE3 translocation identifies novel chemical series modulating lysosome function” (Autophagy, 2022).

Holding throughout (conditions): PKIS2 primary screening
In series [1] the test system is SH-SY5Y cells. The experiment in a line: Nuclear count from microscopy images (cellular growth and toxicity). Further: reference of the scale not given here.
The test system of series [2] is SH-SY5Y cells. Put plainly: AK (adenylate kinase) release ToxiLight cytotoxicity assay. Further: reference of the scale not given here.
A further series relates to endogenous TFE3. The experiment in a line: TFE3 nuclear translocation, immunocytochemistry high-content imaging. In kind it is cell-based.
The test system of series [3] is SH-SY5Y cells.
Excerpt: The PKIS2 Library was supplied by The Structural Genomics Consortium at the University of North Carolina at Chapel Hill.
The subject of another series is endogenous TFEB. Put plainly: TFEB nuclear translocation, immunocytochemistry high-content imaging. In kind it is cell-based.

Read-outs that look alike come from different tables or passages of the source.
Wherever DQ Intensity is given: reference of the scale not given here.
Wherever DQ Spot is given: reference of the scale not given here.

`Fc1cc(Cl)ccc1Nc1ccnc2cc(-c3ccc(CN4CCCCC4)o3)ccc12` [UNC10225220A]: the “Nuclear Count” value in the series with SH-SY5Y cells [1] came to 76.92. This compound also came in with an AK with SH-SY5Y cells [2] of 82.41. Besides, the TFE3 % in the series with endogenous TFE3 is 18.00%. The “DQ Intensity” value in the series on SH-SY5Y cells [3] (DQ Red BSA intensity) is listed as 113.72. In addition, in the series on SH-SY5Y cells [3] (DQ Red BSA spot count), the “DQ Spot” value was 129.26. Also, in the series on endogenous TFEB, the TFEB % is 3.77%.

Regarding `Cn1cc(-c2ccc3c(c2)CCN3C(=O)Cc2cc(F)cc(F)c2F)c2c(N)ncnc21` [UNC10225071A], the “Nuclear Count” value in the series with SH-SY5Y cells [1] is recorded as 91.42. Further, the AK in the series with SH-SY5Y cells [2] came out at 97.57. Besides, the TFE3 % with endogenous TFE3 is on record as 19.64%. In the series on SH-SY5Y cells [3], the “DQ Intensity” value was found to be 128.82 and the “DQ Spot” value worked out at 133.47. This compound also yielded a TFEB % with endogenous TFEB of 5.81%.

Turning to `FC(F)(F)c1ccc(-c2nn3ncccc3c2-c2ccnc(Nc3cccc(C(F)(F)F)c3)n2)cc1` [UNC10225138A], in the series on SH-SY5Y cells [1], the “Nuclear Count” value is recorded as 92.79. The same compound yielded an AK with SH-SY5Y cells [2] of 86.01. The same compound displayed a TFE3 % with endogenous TFE3 of 11.01%. In addition, in the series on SH-SY5Y cells [3], the “DQ Intensity” value is 102.80 and the “DQ Spot” value came to 109.82. The same compound yielded a TFEB % in the series on endogenous TFEB of 4.73%.

For `O=C(Nc1n[nH]c2cc(-c3ccccc3F)ccc12)C1CC1` [SB-733371], in the series on SH-SY5Y cells [1], the “Nuclear Count” value came to 133.33. The AK in the series with SH-SY5Y cells [2] is given as 88.17. In the series on endogenous TFE3, this compound yielded a TFE3 % of 7.51%. The “DQ Intensity” value with SH-SY5Y cells [3] (DQ Red BSA intensity) worked out at 129.64. In addition, in the series on SH-SY5Y cells [3] (DQ Red BSA spot count), the “DQ Spot” value came out at 114.49. This compound also showed a TFEB % in the series on endogenous TFEB of 4.96%.

Take `NS(=O)(=O)CCc1cccc(Nc2nccc(-c3c(-c4cccc(NC(=O)c5c(F)cccc5F)c4)nn4ccccc34)n2)c1` [UNC10224988A]: in the series with SH-SY5Y cells [1], the “Nuclear Count” value worked out at 124.64. The compound also displayed an AK with SH-SY5Y cells [2] of 106.43. The TFE3 % with endogenous TFE3 is recorded as 7.44%. Moreover, in the series with SH-SY5Y cells [3], the “DQ Intensity” value is listed as 109.41 and the “DQ Spot” value amounted to 101.39. In the series with endogenous TFEB, this compound yielded a TFEB % of 3.80%.

With `COc1cccc(NC(=O)Nc2ccc(C)c(-c3ccc(C(=O)Nc4ccncc4)cc3)c2)c1` [UNC10225200A], the “Nuclear Count” value in the series on SH-SY5Y cells [1] is 79.81. Further, the AK in the series with SH-SY5Y cells [2] is listed as 112.40. Besides, the TFE3 % in the series with endogenous TFE3 was 12.37%. Also, in the series with SH-SY5Y cells [3], the “DQ Intensity” value came out at 99.65 and the “DQ Spot” value was 116.14. The compound further showed a TFEB % in the series with endogenous TFEB of 7.95%.

Turning to `CNc1nccc(-c2c(-c3ccc(F)cc3)ncn2CCCN2CCOCC2)n1` [UNC10225031A], the “Nuclear Count” value in the series with SH-SY5Y cells [1] came out at 102.35. In the series with SH-SY5Y cells [2], this compound had an AK of 73.64. This compound yielded a TFE3 % in the series with endogenous TFE3 of 11.89%. Moreover, in the series with SH-SY5Y cells [3], the “DQ Intensity” value stood at 87.71 and the “DQ Spot” value was determined as 104.14. The compound further returned a TFEB % in the series on endogenous TFEB of 8.16%.

As for `COc1cc(Nc2nccc(N3CCC(NC(=O)Nc4ccc5c(c4)OCO5)C3)n2)cc(OC)c1OC` (stereo not drawn) [GSK1379766], the “Nuclear Count” value with SH-SY5Y cells [1] is recorded as 95.41. Also, in the series on SH-SY5Y cells [2], the AK is recorded as 118.87. The TFE3 % in the series on endogenous TFE3 turned out to be 9.31%. For the same compound, in the series on SH-SY5Y cells [3] (DQ Red BSA intensity), the “DQ Intensity” value was 63.32. For the same compound, the “DQ Spot” value in the series with SH-SY5Y cells [3] (DQ Red BSA spot count) came out at 78.55. The compound further had a TFEB % in the series with endogenous TFEB of 4.47%.

Turning to `Cl.c1ccc(Cn2cnc3cc(Nc4ncnc5ccccc45)ccc32)cc1` [UNC10225378A], the “Nuclear Count” value with SH-SY5Y cells [1] is on record as 84.68. In addition, the AK in the series with SH-SY5Y cells [2] is 86.98. Besides, the TFE3 % in the series with endogenous TFE3 is recorded as 16.85%. Besides, the “DQ Intensity” value with SH-SY5Y cells [3] (DQ Red BSA intensity) was 110.75. In addition, the “DQ Spot” value in the series on SH-SY5Y cells [3] (DQ Red BSA spot count) came to 119.25. In addition, the TFEB % in the series with endogenous TFEB was found to be 2.97%.

As for `Cl.NS(=O)(=O)c1cccc(Nc2cc(-c3ccc(F)cc3)n[nH]2)c1` [UNC10112764A], the “Nuclear Count” value in the series with SH-SY5Y cells [1] stood at 80.49. This compound also displayed an AK in the series with SH-SY5Y cells [2] of 125.30. For the same compound, in the series on endogenous TFE3, the TFE3 % worked out at 14.81%. Moreover, the “DQ Intensity” value in the series on SH-SY5Y cells [3] (DQ Red BSA intensity) was 118.54. In the series on SH-SY5Y cells [3] (DQ Red BSA spot count), the “DQ Spot” value came to 103.52. This compound displayed a TFEB % with endogenous TFEB of 1.30%.

Turning to `CNc1nccc(-c2c(-c3ccc(F)cc3)ncn2C2CCN(C)CC2)n1` [UNC10225274A], in the series with SH-SY5Y cells [1], the “Nuclear Count” value stood at 122.34. This compound also yielded an AK in the series on SH-SY5Y cells [2] of 126.95. The compound also had a TFE3 % in the series with endogenous TFE3 of 15.08%. In the series with SH-SY5Y cells [3], the “DQ Intensity” value was found to be 105.02 and the “DQ Spot” value is reported as 100.15. Moreover, the TFEB % in the series on endogenous TFEB is listed as 7.89%.

On to `[2H]C([2H])(c1cccc(C(F)(F)F)c1C)n1ccn2c(=O)nc(N3CCOCC3)cc12` [UNC10243860A], for which, in the series with SH-SY5Y cells [1], the “Nuclear Count” value came to 110.69. This compound gave an AK in the series with SH-SY5Y cells [2] of 87.88. Besides, in the series with endogenous TFE3, the TFE3 % is listed as 12.75%. Also, in the series on SH-SY5Y cells [3], the “DQ Intensity” value turned out to be 104.50 and the “DQ Spot” value came to 118.55. In the series with endogenous TFEB, the TFEB % came to 4.33%.

For the compound `Cc1ccc(NC(=O)c2ccc(Cl)c(Cl)c2)cc1-c1ccc(C(=O)Nc2ccncc2)cc1` [UNC10225151A], in the series with SH-SY5Y cells [1], the “Nuclear Count” value is recorded as 117.17. In addition, the AK in the series on SH-SY5Y cells [2] was 125.83. The same compound displayed a TFE3 % in the series with endogenous TFE3 of 10.75%. For the same compound, in the series on SH-SY5Y cells [3], the “DQ Intensity” value is on record as 92.58 and the “DQ Spot” value is 82.55. The compound further showed a TFEB % in the series with endogenous TFEB of 6.14%.
